# “Also recorded” adds a separate entry of the source.
# What was measured:
# [1] = tested on: MDA-MB-231 cells; assay: Cell morphology under phase contrast microscope, MDA-MB-231 cells; format: cell-based, human
# Excerpt: FIGS. 2B-2G are images of MDA-MB-231 cells treated with DMSO (control), NS-123 and 3D (FIGS. 2B, 2D and 2F) under a phase contrast microscope (10×) and apoptosis profiles for the respective images (FIGS. 2C, 2E and 2G) determined using flow cytometry.
# To further investigate the type of cell death induced by treatment of TNBC cells with 3D, its activity was compared to the original parent radiosensitizing compound NS-123 (4-bromo-3-nitrophenyl propan-1-one). FIG. 2A depicts the chemical structures of both the parent NS-123 (left) and compound 3D (right) highlighting the substitution with iodide and sulfonyl moieties in 3D structure compared to a bromide and carbonyl in the original radiosensitizing NS-123.
# [2] = tested on: MDA-MB-231 cells; assay: Quantitative annexin V death assay (flow cytometry) in MDA-MB-231 cells; format: cell-based, human; conditions: n=4-7; for total annexin V-positive cells: DMSO 13.5±2.2%; for live cell population: DMSO 86.4±2.2%
# Protocol: To confirm what type of cell death was responsible for the observed activity, a quantitative annexin V death assay was performed to quantify the amount of necrosis (non-specific toxicity) vs apoptosis (programmed cell death) induced by compound 3D. […] Compound 3D decreased live cell population from 86.4±2.2% (DMSO) to 48.1±3.0% (3D: p<0.001) and increased total annexin V-positive cells from 13.5±2.2% (DMSO) to 51.4±3.1% (3D: p<0.001).
# [3] = tested on: MDA-MB-231 cells; assay: Caspase 3/7 activity assay in MDA-MB-231 cells; format: cell-based, human; conditions: for caspase 3/7 positive cells: DMSO 6.4±1.1%, n=3
# Protocol: To identify mechanisms involved in the apoptotic death induced by compound 3D the iodine group (3D) was substituted by a fluorine group (3C) and a caspase 3/7 activity assay kit was utilized, which detects downstream effector apoptosis-causing caspases to assess death of TNBC cells. […] Quantitatively, 49.5±8.3% of cells were caspase 3/7 positive when treated with compound 3D compared to only 6.4±1.1% in the DMSO control group p<0.005 (FIG. 3D).
# Further substitution experiments were conducted, replacing the para iodine with chlorine or bromine, as well as experiments wherein the sulfone was removed. To help identify mechanisms involved in the apoptotic death induced by compound 3D, the iodine group was substituted with chlorine or bromine. A caspase 3/7 activity assay kit was used to detect downstream effector apoptosis-causing caspases to assess death of TNBC cells. […] Additionally, when a compound was generated lacking the sulfonyl group, all cytotoxic effects of 3D on TNBC cells was abolished.
# [4] = tested on: HS-578T TNBC cell line; assay: Caspase 3/7 activation in Hs578T cells; format: cell-based; conditions: 10 μM, 4 hr
# Excerpt: (§1) FIGS. 7A-7H illustrate the finding that similar death-inducing effects are observed in other triple negative cells lines BT-549 and Hs578T. […] FIG. 7D represents a graphical quantification of caspase3/7 activation by 3D in BT-549. […] FIG. 7H represents a graphical quantification of caspase3/7 activation by 3D in HS-578T.
# (§2) In order to explore the broader effects of 3D in the killing of TNBC cells, the experiments reported in Example 2 were repeated in 2 additional cells lines BT-549 and Hs578T.
# [5] = tested on: BT-549 TNBC cell line; assay: Caspase 3/7 activation in BT-549 cells; format: cell-based; conditions: 10 μM, 4 hr
# Excerpt: as §1, §2
# [6] = tested on: MDA-MB-231 cells; assay: ROS detection (Muse oxidative stress kit) in MDA-MB-231 cells; format: cell-based, human; conditions: 10 μM, 4 hrs
# Excerpt: (§3) FIG. 4B is a set of images of MDA-MB-231 (TNBC cells) co-cultured with MCF-10A (normal mammary cells) after exposure to DMSO control (left) as well as 3D (right). FIGS. 5A-5E illustrate the finding that 3D induces a rise in reactive oxygen species (ROS) inside TNBC cells and not normal healthy cells.
# (§4) Manipulation of reactive oxygen species (ROS) levels is one potential mechanistic target for anti-cancer molecules because high levels of ROS can promote cell death. […] Levels of ROS were detected by assessing the conversion of a non-fluorescent compound (dihydroethidium) to its oxidized metabolite (ethidium bromide) in the presence of intracellularly accumulated ROS following 3D administration using a Muse oxidative stress kit.
# [7] = tested on: prostate cancer cells; conditions: U.S. Pat. No. 8,541,476; cited from earlier work
# [8] = tested on: H2AX (P-H2AX ser139); assay: Western blot of H2AX phosphorylation in MDA-MB-231 cells; format: cell-based, human; conditions: 4 hr treatment
# Excerpt: (§5) Effects of 3D on DNA damage in MDA-MB-231 cells was compared to a matching dose of DMSO vehicle.
# [9] = tested on: ATM (P-ATM ser1981); assay: Western blot of ATM phosphorylation in MDA-MB-231 cells; format: cell-based, human; conditions: 4 hr treatment
# Excerpt: as §5
# [10] = tested on: MCF-10A cells; assay: ROS detection (Muse oxidative stress kit) in normal MCF-10A cells; format: cell-based, human; conditions: 10 μM, 4 hrs, p=0.9
# Excerpt: as §3, §4
# [11] = tested on: MCF-10A cells co-cultured with MDA-MB-231 cells; assay: Co-culture of MCF-10A and MDA-MB-231 cells, fluorescence microscopy; format: cell-based, human; conditions: 1:1 MCF-10A (mcherry red) and MDA-MB-231 (GFP-green); 10 μM, 4 hrs; n=3
# Protocol: To validate the selective nature of 3D towards cancer cells, normal human mammary cells were co-cultured (MCF-10A) with human TNBC cells (MDA-MB-231) in the same culture dish (FIG. 4B) and incubated with 3D to assess the compound's selectivity. This experiment was done by plating a 1:1 ratio of MCF-10A cells (mcherry red) and MDA-MB-231 cells (GFP-green) and challenging them with DMSO or 3D (10 μM) for 4 hrs as described in Example 2. Following the treatments, pictures were acquired at 20× using the EVOS-Fl microscope. […] This co-culture was repeated 3 separate times on different passages (n=3).
# [12] = tested on: ER-positive breast cancer cells; conditions: U.S. Pat. No. 8,541,476; cited from earlier work
# [13] = tested on: MCF-10A (normal mammary cells); assay: Annexin V assay in normal MCF-10A mammary cells; format: cell-based; conditions: normal MCF-10A cells, 10 μM, n=5
# Excerpt: (§6) The effects of compound 3D on survival of MCF-10A (normal mammary cells) were thus examined.
# [14] = tested on: MCF-10A (normal mammary cells); assay: Cell morphology of normal MCF-10A cells after treatment; format: cell-based; conditions: 10 μM, 4 hrs
# Excerpt: as §6
# [15] = tested on: MDA-MB-231 cells; assay: Colony formation of MDA-MB-231 cells with and without radiation; format: cell-based, human; conditions: 2 Gray radiation dose
# Protocol: FIG. 1A is a set of images illustrating colonies of MDA-MB-231 cells exposed to DMSO (control) and compound 3D (10 μM, 4 hrs).
# FIG. 1B reports the results depicted in FIG. 1A as a bar graph.
# Compound 3D was previously shown to radiosensitize ER-positive breast cancer and prostate cancer cells (U.S. Pat. No. 8,541,476). This compound was then tested to see if it would radiosensitize aggressive TNBC cells such as MDA-MB-231.
SMILES,cell appearance under phase contrast microscope (10×) [1],total annexin V-positive cells [2] [%],live cell population [2] [%],apoptosis / killing of TNBC cells by caspase 3/7 activation [3],caspase 3/7 positive cells [3] [%],caspase 3/7 activation [4],caspase 3/7 activation [5],ROS accumulation in TNBC cells [6],also measured
"CCC(=O)c1ccc(Br)c([N+](=O)[O-])c1 [NS-123, 4-bromo-3-nitrophenyl propan-1-one, reference compound]",normal healthy features,11.6±2.4,88.3±2.4,–,–,–,–,–,–
"CCS(=O)(=O)c1ccc(F)c([N+](=O)[O-])c1 [Compound 3C, 4-(Ethylsulfonyl)-1-fluoro-2-nitrobenzene]",–,–,–,very low rates of apoptosis,7.9±3.0,–,–,–,–
"O=[N+]([O-])c1ccccc1I [1-iodo-2-nitrobenzene, reference compound]",–,–,–,–,–,inactive,inactive,inactive,–
"CCS(=O)(=O)c1ccc(I)c([N+](=O)[O-])c1 [Compound 3D, 4-(Ethylsulfonyl)-1-iodo-2-nitrobenzene]",rounded and unhealthy; also recorded: noticeably misshapen,51.4±3.1,48.1±3.0,induced specific caspase 3/7 activation; also recorded: high rates of apoptosis,49.5±8.3,increased caspase 3/7 activation,increased caspase 3/7 activation; also recorded: induced an activated caspase-3/7 population,significantly raised the levels of ROS,radiosensitization [7]: radiosensitize; total H2AX [8]: increased slightly; phosphorylated levels of H2AX (P-H2AX ser139) ([8]; vs DMSO): significant increase; also recorded: induction; total ATM [9]: remains unchanged; phosphorylated levels of ATM (P-ATM ser1981) ([9]; vs DMSO): significant increase; also recorded: induction; ROS accumulation in normal cells [10]: lacking any significant effects; also recorded: no significant increase; increase in ROS accumulation compared to DMSO ([6]; p=0.00005): ~3 fold; selectivity of apoptotic death in co-culture [11]: apoptotic death selectively occurred in the green cells (TNBC) while the red cells (normal) remained healthy; radiosensitization [12]: radiosensitize; total apoptosis ([13]; DMSO 12.7±5.3%): 12.2±3.2%; cell viability ([13]; DMSO 85.6±5.9%): 86.9±3.3%; early apoptosis population ([3]; DMSO 0.7±0.1%): 0.9±0.2%; caspase 3/7-positive cells in late apoptosis phase ([3]; DMSO 5.8±1.0%): 47.4±8.5%; effect on morphology / health of normal cells [14]: morphology remains intact; also recorded: no observable effect on the health of non-TNBC cells; radiosensitizing effect on colony formation [15]: failed to enhance this action further; also recorded: no radiosensitizing effects
